From patent publication US10125142B2, “Method for purifying mitomycin C” (Kyowa Hakko Kirin Co., Ltd., priority 2015, dated 2018)

Assay: Change in the number of particles in mitomycin C in a stability test under severe conditions (MFI DPA5200 particle quantification)
Assay type: physicochemical
Settings: for number of particles ≥10 μm in 10 mg of mitomycin C / number of particles ≥25 μm in 10 mg of mitomycin C: average of triplicates; for change in number of particles having a diameter of 10 μm or more / change in number of particles having a diameter of 25 μm or more: after 300-hour exposure to severe conditions (50° C.), result in words
Method: Change in the Number of Particles in Mitomycin C in a Stability Test under Severe Conditions
300 mg of each mitomycin C prepared in Example 1 and Comparative Examples 1 and 2 is separately placed into a vial, and stored at 50° C. under uncontrolled humidity. Sampling was performed after 0, 191 and 300 hours from the onset of the storage, and whether the number of particles would increase was examined according to the following section “Quantification of Particles in Mitomycin C”.
Quantification of Particles in Mitomycin C
10 mg of mitomycin C was weighed out accurately, water for injection was added to make up the volume to 25 mL exactly, and the resulting solution was used as a sample solution.
The particles in mitomycin C were analyzed with MFI DPA5200 (Protein Simple). Prior to the analysis of the sample solution, the passage in the analytical device was washed with water for injection to obtain the particle-free baseline. 1 mL of the sample solution was drawn into a pipette tip and then loaded on the sample holder. The sample solution was allowed to pass into the passage at a flow rate 0.1 mL/min to completely replace the liquid in the passage, and then the analysis of the sample; solution was started (volume for analysis: 0.61 mL).
The obtained data was filtered on MVAS 1.3 software to extract particles having an aspect ratio of less than 0.85 for the purpose of excluding bubbles. The number of particles having a diameter of 10 μm or more in 10 mg of mitomycin C and the number of particles having a diameter of 25 μm or more in 10 mg of mitomycin C were separately counted using Microsoft Excel.
The above procedure was repeated 3 times, and the average value of the triplicates was used as the quantitative value.

[1] = 191 hours storage at 50° C. under uncontrolled humidity
[2] = 300 hours storage at 50° C. under uncontrolled humidity
[3] = Initial (0 hours), storage at 50° C. under uncontrolled humidity

SMILES | number of particles ≥10 μm in 10 mg of mitomycin C [1] | number of particles ≥25 μm in 10 mg of mitomycin C [1] | number of particles ≥10 μm in 10 mg of mitomycin C [2] | number of particles ≥25 μm in 10 mg of mitomycin C [2] | number of particles ≥10 μm in 10 mg of mitomycin C [3] | number of particles ≥25 μm in 10 mg of mitomycin C [3] | change in number of particles having a diameter of 10 μm or more | change in number of particles having a diameter of 25 μm or more
CO[C@@]12[C@H](COC(N)=O)C3=C(C(=O)C(C)=C(N)C3=O)N1C[C@@H]1N[C@@H]12 [Comparative Example 1, Mitomycin C] | 7063 | 861 | 22527 | 3005 | 2118 | 246 | significant increase | significant increase
CO[C@@]12[C@H](COC(N)=O)C3=C(C(=O)C(C)=C(N)C3=O)N1C[C@@H]1N[C@@H]12 [Comparative Example 2, Mitomycin C] | 279617 | 51953 | 301967 | 36216 | 3853 | 178 | significant increase | significant increase
CO[C@@]12[C@H](COC(N)=O)C3=C(C(=O)C(C)=C(N)C3=O)N1C[C@@H]1N[C@@H]12 [Example 1, mitomycin C] | 3624 | 273 | 5683 | 314 | 3047 | 151 | almost no increase | almost no increase
